One may read the EC50 as the concentration giving half of the maximal effect.

GST-RIPK1 (recombinant GST-RIPK1 kinase domain (residues 1-327)), sequence (Q13546 1-327): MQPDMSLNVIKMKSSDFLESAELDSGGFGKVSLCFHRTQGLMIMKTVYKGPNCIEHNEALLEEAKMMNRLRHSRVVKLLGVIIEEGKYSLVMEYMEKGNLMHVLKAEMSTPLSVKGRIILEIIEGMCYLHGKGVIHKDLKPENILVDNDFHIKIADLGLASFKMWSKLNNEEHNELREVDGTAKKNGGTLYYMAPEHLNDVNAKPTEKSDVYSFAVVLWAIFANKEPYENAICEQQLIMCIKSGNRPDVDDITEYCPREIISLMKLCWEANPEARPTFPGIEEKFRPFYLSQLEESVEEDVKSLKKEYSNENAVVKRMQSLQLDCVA

For the test, the target named is GST-RIPK1 (recombinant GST-RIPK1 kinase domain (residues 1-327)) (Homo sapiens (Human), UniProt Q13546). Briefly: RIPK1-ADP-Glo Enzymatic Assay. Type of test: biochemical. The settings on record: 25 nM GST-RIPK1, 300 μM ATP, 3 μM dephosphorylated-MBP, 30 min pre-incubation, 150 min reaction. How it is done:
The enzymatic activity of RIPK1 is measured using an assay derived from ADP-Glo kit (TMPromega), which provides a luminescent-based ADP detection system. Specifically, the ADP generated by RIPK1 kinase is proportionally detected as luminescent signals in a homogenous fashion. In this context, the assessment of the inhibitory effect of small molecules (EC50) is measured by the effectiveness of the compounds to inhibit the ATP to ADP conversion by RIPK1.
In this assay, the potency (EC50) of each compound was determined from a ten-point (1:3 serial dilution; top compound concentration of 100000 nM) titration curve using the following outlined procedure. To each well of a white ProxiPlus 384 well-plate, 30 nL of compound (1% DMSO in final assay volume of 3 μL) was dispensed, followed by the addition of 2 μL of 1× assay buffer (25 mM Hepes 7.3, 20 mM MgCl2, 50 mM NaCl, 1 mM DTT, 0.005% Tween20, and 0.02% BSA) containing 37.5 nM of GST-RIPK1 (recombinant GST-RIPK1 kinase domain (residues 1-327) enzyme produced from baculovirus-transfected Sf21 cells: MW 62 kDa). Plates were placed in an ambient temperature humidified chamber for a 30 min pre-incubation with compound. Subsequently, each reaction was initiated by the addition of 1 μL 1× assay buffer containing 900 μM ATP and 3 μM dephosphorylated-MBP substrate. The final reaction in each well of 3 μL consists of 25 nM of GST-RIPK1, 300 μM ATP, and 3 μM dephosphorylated-MBP. Kinase reactions were allowed to proceed for 150 min prior to adding ADP-Glo reagents per Promega's outlined kit protocol. Dose-response curves were generated by plotting percent effect (% product conversion; Y-axis) vs. Log 10 compound concentrations (X-axis). EC50 values were calculated using a non-linear regression, four-parameters sigmoidal dose-response model.
(ADP-Glo turns the ADP formed in a reaction into a luminescent signal.)
On to `Cc1ccc([C@@H]2CCc3nn(C45CC(C#N)(C4)C5)c(=O)n32)cc1` [Compound 4-7, (S)-3-(3-oxo-5-(p-tolyl)-6,7-dihydro-3H-pyrrolo[2,1-c][1,2,4]triazol-2(5H)-yl)bicyclo[1.1.1]pentane-1-carbonitrile], for which the EC50 was determined as 49.5 nM.
For `CC12CC(n3nc4n(c3=O)[C@H](c3cc(F)cc(F)c3)CC4)(CO1)C2` [Compound 1-14, (5S)-5-(3,5-difluorophenyl)-2-(1-methyl-2-oxabicyclo[2.1.1]hexan-4-yl)-2,5,6,7-tetrahydro-3H-pyrrolo[2,1-c][1,2,4]triazol-3-one], the EC50 is 152 nM.
With `COc1cc(F)cc(C2CCc3nn(C45CC(F)(C4)C5)c(=O)n32)c1` (racemic) [Compound 4-2, (±)-5-(3-fluoro-5-methoxyphenyl)-2-(3-fluorobicyclo[1.1.1]pentan-1-yl)-2,5,6,7-tetrahydro-3H-pyrrolo[2,1-c][1,2,4]triazol-3-one], the EC50 came out at 259 nM.
As to `COC(=O)C12CC(n3nc4n(c3=O)[C@H](c3cc(F)cc(F)c3)CC4)(C1)C2(F)F` [Compound 1-36, methyl 3-[(5S)-5-(3,5-difluorophenyl)-3-oxo-6,7-dihydro-3H-pyrrolo[2,1-c][1,2,4]triazol-2(5H)-yl]-2,2-difluorobicyclo[1.1.1]pentane-1-carboxylate], the EC50 came out at 61.9 nM.
Consider `N#CC12CC(n3nc4n(c3=O)[C@H](c3cc(F)cc(F)c3)CC4F)(C1)C2` (single isomer, unassigned) [Compound 6-6, 3-[(5S)-5-(3,5-difluorophenyl)-7-(S or R)-fluoro-3-oxo-6,7-dihydro-3H-pyrrolo[2,1-c][1,2,4]triazol-2(5H)-yl]bicyclo[1.1.1]pentane-1-carbonitrile], for which the EC50 was determined as 20.5 nM.
As for `Cc1c(F)cc([C@@H]2CCc3nn(C45CC(F)(C4)C5)c(=O)n32)cc1F` [Compound 1-56, (S)-5-(3,5-difluoro-4-methylphenyl)-2-(3-fluorobicyclo[1.1.1]pentan-1-yl)-2,5,6,7-tetrahydro-3H-pyrrolo[2,1-c][1,2,4]triazol-3-one], the EC50 stood at 15.8 nM.
As to `N#CC12CC(n3nc4n(c3=O)[C@H](c3cc(F)cc(F)c3)CS4)(C1)C2` [Compound 1-65, (R)-3-(5-(3,5-difluorophenyl)-3-oxo-5,6-dihydrothiazolo[2,3-c][1,2,4]triazol-2(3H)-yl)bicyclo[1.1.1]pentane-1-carbonitrile], the EC50 came to 21.1 nM.
For the compound `C[C@@H]1C[C@@H](c2cc(F)cc(F)c2)n2c1nn(C13CC(C#N)(C1)C3)c2=O` [Compound 1-69, 3-((5S,7R)-5-(3,5-difluorophenyl)-7-methyl-3-oxo-6,7-dihydro-3H-pyrrolo[2,1-c][1,2,4]triazol-2(5H)-yl)bicyclo[1.1.1]pentane-1-carbonitrile], the EC50 is 263 nM.
Turning to `N#CC12C3C4C1C1C2C3C41n1nc2n(c1=O)[C@H](c1cc(F)cc(F)c1)CC2` (stereo partly drawn) [Compound 1-21, 4-[(5S)-5-(3,5-difluorophenyl)-3-oxo-6,7-dihydro-3H-pyrrolo[2,1-c][1,2,4]triazol-2(5H)-yl]penta-cyclo[4.2.0.0~2,5~.0~3,8~.0~4.7~] octane-1-carbonitrile], the EC50 was 141 nM.
In the case of `O=c1n(C23CC(c4ccccc4)(C2)C3)nc2n1[C@H](c1cncc(F)c1)CC2` [Compound 1-13, (5S)-5-(5-fluoropyridin-3-yl)-2-(3-phenylbicyclo[1.1.1]pentan-1-yl)-2,5,6,7-tetrahydro-3H-pyrrolo[2,1-c][1,2,4]triazol-3-one], the EC50 was found to be 514 nM.
For the compound `O=c1n(C23C4C5C2C2C3C4C52F)nc2n1[C@H](c1cc(F)cc(F)c1)CC2` (stereo partly drawn) [Compound 1-20, (5S)-5-(3,5-difluorophenyl)-2-(4-fluoropentacy-clo[4.2.0.0~2,5~.0~3,8~.0~4,7~]octan-1-yl)-2,5,6,7-tetrahydro-3H-pyrrolo[2,1-c][1,2,4]triazol-3-one], the EC50 amounted to 38.5 nM.
Regarding `O=c1n(C23CC(F)(C2)C3)nc2n1[C@H](c1ccc(F)cc1)CC2` [Compound 1-37, (5S)-2-(3-fluorobicyclo[1.1.1]pentan-1-yl)-5-(4-fluorophenyl)-2,5,6,7-tetrahydro-3H-pyrrolo[2,1-c][1,2,4]triazol-3-one], the EC50 amounted to 65.6 nM.
For `Cc1cncc([C@@H]2CCc3nn(C45CC(F)(C4)C5)c(=O)n32)n1` [Compound 4-13, (S)-2-(3-fluorobicyclo[1.1.1]pentan-1-yl)-5-(6-methylpyrazin-2-yl)-2,5,6,7-tetrahydro-3H-pyrrolo[2,1-c][1,2,4]triazol-3-one], the EC50 was found to be 79.8 nM.
To `Cc1ccccc1[C@@H]1CCc2nn(C34CC(F)(C3)C4)c(=O)n21` [Compound 4-15, (S)-2-(3-fluorobicyclo[1.1.1]pentan-1-yl)-5-(o-tolyl)-2,5,6,7-tetrahydro-3H-pyrrolo[2,1-c][1,2,4]triazol-3-one] belongs 341 nM.
Regarding `O=c1n(C23CC(F)(C2)C3)nc2n1[C@H](c1cc(F)cc(F)c1)CC2` [Compound 1-2, (5S)-5-(3,5-difluorophenyl)-2-(3-fluorobicyclo[1.1.1]pentan-1-yl)-2,5,6,7-tetrahydro-3H-pyrrolo[2,1-c][1,2,4]triazol-3-one], the EC50 is 22.8 nM.
`O=c1n(C23CC(F)(C2)C3)nc2n1C(c1cccc(F)c1F)CC2` (racemic) [Compound 4-5, (±)-5-(2,3-difluorophenyl)-2-(3-fluorobicyclo[1.1.1]pentan-1-yl)-2,5,6,7-tetrahydro-3H-pyrrolo[2,1-c][1,2,4]triazol-3-one]: the EC50 was determined as 53.8 nM.
Then `N#CC12CC(n3nc4n(c3=O)[C@@H](c3cc(F)cc(F)c3)CS4)(C1)C2` [Compound 1-64, (S)-3-(5-(3,5-difluorophenyl)-3-oxo-5,6-dihydrothiazolo[2,3-c][1,2,4]triazol-2(3H)-yl)bicyclo[1.1.1]pentane-1-carbonitrile], with 395 nM; and `O=c1n(C23CC(F)(C2)C3)nc2n1[C@H](c1cnc(C(F)(F)F)cn1)CC2` [Compound 4-16, (S)-2-(3-fluorobicyclo[1.1.1]pentan-1-yl)-5-(5-(trifluoromethyl)pyrazin-2-yl)-2,5,6,7-tetrahydro-3H-pyrrolo[2,1-c][1,2,4]triazol-3-one], with 496 nM.
Turning to `COC(=O)C12CC(n3nc4n(c3=O)[C@H](c3ccccc3)CC4)(C1)C2(F)F` [Compound 3-2, methyl (S)-2,2-difluoro-3-(3-oxo-5-phenyl-6,7-dihydro-3H-pyrrolo[2,1-c][1,2,4]triazol-2(5H)-yl)bicyclo[1.1.1]pentane-1-carboxylate], the EC50 is 143 nM.
With `O=c1n(C23CC(F)(C2)C3)nc2n1[C@H](c1ccccc1)CC2F` (single isomer, unassigned) [Compound 6-4, (5S)-7-(S or R)-fluoro-2-(3-fluorobicyclo[1.1.1]pentan-1-yl)-5-phenyl-2,5,6,7-tetrahydro-3H-pyrrolo[2,1-c][1,2,4]triazol-3-one], the EC50 came out at 21.9 nM.
On to `N#CC12CCC(n3nc4n(c3=O)[C@H](c3cc(F)cc(F)c3)CC4)(CC1)C2` [Compound 1-29, 4-[(5S)-5-(3,5-difluorophenyl)-3-oxo-6,7-dihydro-3H-pyrrolo[2,1-c][1,2,4]triazol-2(5H)-yl]bicyclo[2.2.1]heptane-1-carbonitrile], for which the EC50 was found to be 68 nM.
Consider `N#CC12CC(n3nc4n(c3=O)[C@H](c3ccc(Cl)cc3)CC4)(C1)C2` [Compound 1-46, (S)-3-(5-(4-chlorophenyl)-3-oxo-6,7-dihydro-3H-pyrrolo[2,1-c][1,2,4]triazol-2(5H)-yl)bicyclo[1.1.1]pentane-1-carbonitrile], for which the EC50 turned out to be 44 nM.
As to `N#CC12CC(n3nc4n(c3=O)[C@H](c3c(F)cccc3F)CC4)(C1)C2` [Compound 1-43, (S)-3-(5-(2,6-difluorophenyl)-3-oxo-6,7-dihydro-3H-pyrrolo[2,1-c][1,2,4]triazol-2(5H)-yl)bicyclo[1.1.1]pentane-1-carbonitrile], the EC50 stood at 57.7 nM.
Consider `N#CC12CC(n3nc4n(c3=O)C(C3CCCC3)CC4)(C1)C2` (single isomer, unassigned) [Compound 1-54, 3-(5-(S or R)-cyclopentyl-3-oxo-6,7-dihydro-3H-pyrrolo[2,1-c][1,2,4]triazol-2(5H)-yl)bicyclo[1.1.1]pentane-1-carbonitrile], for which the 50% effective concentration (EC50) came out at 340 nM.
Turning to `N#CC12CC(n3nc4n(c3=O)[C@H](c3cc(F)cc(F)c3)CCC4)(C1)C2` [Compound 1-53, (S)-3-(5-(3,5-difluorophenyl)-3-oxo-5,6,7,8-tetrahydro-[1,2,4]triazolo[4,3-a]pyridin-2(3H)-yl)bicyclo[1.1.1]pentane-1-carbonitrile], the EC50 turned out to be 109 nM.
For the compound `N#CC12CC(n3nc4n(c3=O)[C@H](c3cccc(Cl)c3)CC4)(C1)C2` [Compound 1-62, (S)-3-(5-(3-chlorophenyl)-3-oxo-6,7-dihydro-3H-pyrrolo[2,1-c][1,2,4]triazol-2(5H)-yl)bicyclo[1.1.1]pentane-1-carbonitrile], the 50% effective concentration (EC50) amounted to 98.6 nM.

(Values after patent US20240025912A1 (Merck Sharp & Dohme LLC, priority 2022, published 2024).)
